# From article PMC9697930 (International Journal of Molecular Sciences, 2022)
# Key:
# ABCB1 [1] = target: T1, ABCB1 (Homo sapiens, UniProt P08183); set-up: expressed in transfected cells; host or cells: MDCKII (canine kidney) subline MDCKII-ABCB1, gift of Dr. Alfred Schinkel; details: Abcb1-knockout mice, MDCKII-ABCB1 cells; cited from earlier work
# ABCB1 mRNA = assay: Gene induction study (qRT-PCR) in MCF-7 cells; format: cell-based, Human; details: 0.5 µM, 24 and 48 h
# Experimental: (§1) Gene expression analyses based on quantitative real-time reverse transcription PCR (qRT-PCR) were performed as described previously. MCF-7 cell line (3.8×10^5 cells/well) was seeded in 12-well plates 24 h before induction experiments. […] After 24 and 48 h intervals, samples were collected by using TRI Reagent. Subsequently, total RNA was isolated from the cells using the chloroform/isopropanol method. Reverse transcription of 1 μg RNA to cDNA was conducted with ProtoScript II Reverse Transcriptase using T100 Thermal Cycler (Bio-Rad Laboratories, Hercules, CA, USA) according to the two-step protocol described previously. The expressions of ABCB1, ABCC1, and ABCG2 genes were measured by qRT-PCR using specific TaqMan assays with QuantStudio 6 machine (Life Technologies, Carlsbad, CA, USA). qRT-PCR reactions were run under predefined thermal cycling conditions (95 °C for 10 min, then 40 repeats of a cycle of 95 °C for 15 s and 60 °C for 60 s). GAPDH and B2M were used as house-keeping genes; the fold-changes in target genes’ expressions were determined according to the 2^-ΔΔCt method.
# ABCG2 mRNA = assay: Gene induction study (qRT-PCR) in MCF-7 cells; format: cell-based, Human; details: 0.5 µM, 24 and 48 h
# Experimental: as §1
# ABCC1 mRNA = assay: Gene induction study (qRT-PCR) in MCF-7 cells; format: cell-based, Human; details: 0.5 µM, 24 and 48 h
# Experimental: as §1
# A431-ABCG2 = assay: MTT proliferation / drug combination assay; format: cell-based; details: Homo sapiens; A431-ABCG2; comparative MTT, 48 h; read-out: antiproliferative IC50
# Experimental: (§2) The viability MTT assay was employed in several experimental sets, including induction studies, comparative viability assays, and drug combinations. First, 1.3 × 10^4 (MDCKII sublines), 1.2 × 10^4 (A431 sublines), 1.5 × 10^4 (MCF-7), and 1.0 × 10^4 (primary NSCLC explants) cells were seeded in 96-well plates. After seeding, cells were left to refresh in incubator for 24 h. Secondly, the medium was removed, and the serial dilutions of the drugs or drug combinations were added to the cells. Next to these variants, a medium with 40% DMSO and vehicle-containing media were tested as nonviable and unaffected viability controls, respectively. After an additional 48 h of incubation, the cells were washed with 1 × PBS and then treated with 1 mg/mL MTT solution in Opti-MEM. Subsequently, cells were incubated for 60 min under standard conditions. After MTT treatment, generated formazan crystals were solubilized with DMSO for 10 min. Wavelengths of 570 nm (formazan) and 690 nm (background) were used for absorbance measurements using a microplate reader Infinite 200 Pro NanoQuant (Tecan, Männedorf, Switzerland).
# (§3) In vitro cell lines (MDCKII and A431) and primary NSCLC explants were seeded (see densities above) in 96-well plates and incubated for 24 h. […] Combined cells were incubated with the tested compounds for 48 h, and subsequently, MTT assay was performed to assess cell viability as described above. Besides IC50-shift analysis, CompuSyn 3.0.1 software (ComboSyn Inc., Paramus, NJ, USA) was used for the additional analysis of obtained data. This software works with the algorithms of the combination index (CI) method of Chou–Talalay, which is frequently used for the accurate quantification of drug combinations’ outcomes. According to the CI method principle, the combination effects were separated into three categories, including synergistic (CI < 0.9), additive (CI between 0.9–1.1), or antagonistic (CI > 1.1) ones.
# A431-ABCC1 = assay: MTT proliferation / drug combination assay; format: cell-based; details: Homo sapiens, comparative MTT, 48 h, read-out: antiproliferative IC50
# Experimental: as §2, §3
# A431-parent = assay: MTT proliferation / drug combination assay; format: cell-based; details: Homo sapiens, A-431; A431 parental; comparative MTT, 48 h; read-out: antiproliferative IC50
# Experimental: as §2, §3
# MTT proliferation assay = format: cell-based, Canine; details: dog, MDCKII-ABCB1 cells, comparative MTT, read-out: antiproliferative IC50
# Experimental: as §2
# ABCB1 [2] = target: T1, ABCB1; assay: Accumulation assay with daunorubicin in MDCKII-ABCB1 cells; format: cell-based; set-up: expressed in transfected cells; host or cells: MDCKII (canine kidney) subline MDCKII-ABCB1, gift of Dr. Alfred Schinkel; details: read-out: ABCB1 inhibition IC50
# Experimental: The conduction of accumulation assays followed the slightly changed protocol described previously. In the study, MDCKII-par, MDCKII-ABCB1, MDCKII-ABCC1, MDCKII-ABCG2, and primary explants were seeded into 12-well plates in variant densities, 22.0 × 10^4, 15.0 × 10^4, 25.0 × 10^4, 22.0 × 10^4, and 15.0 × 10^4 cells/well, respectively. After 24 h incubation, two washing steps with 1 × PBS were applied. […] The cells were then incubated under standard conditions for 30 min. Next steps included placing the plates on ice, washing the cells with ice-cold 1 × PBS two-times, and detaching the cells with the ice-cold 10 × trypsin without phenol red. Following trypsinization, cells were resuspended in 1 × PBS containing 2% FBS. Subsequently, cell suspensions were transferred into the test tubes and kept on ice. The fluorescence in cells was measured immediately after the collection of their suspensions using flow cytometer Sony SA3800 Spectral Cell Analyzer (Sony Biotechnology, San Jose, CA, USA). SA3800 software (Sony Biotechnology, San Jose, CA, USA) was used to evaluate the data.
# ABCB1 [3] = target: T1, ABCB1; details: 12-days exposure; MCF-10A; cited from earlier work
# MDCKII-ABCC1 = assay: MTT proliferation / drug combination assay; format: cell-based, Canine; details: Canis lupus familiaris, comparative MTT, 48 h, read-out: antiproliferative IC50
# Experimental: as §2, §3
# [4] = MTT proliferation / drug combination assay; format: cell-based, Canine; details: dog, MDCKII-ABCG2 cells; MDCKII-ABCG2; comparative MTT, 48 h; read-out: antiproliferative IC50
# Experimental: as §2, §3
# MDCKII-parent = assay: MTT proliferation / drug combination assay; format: cell-based, Canine; details: Canis lupus familiaris; MDCKII-par; comparative MTT, 48 h; read-out: antiproliferative IC50
# Experimental: as §2, §3
# ABCG2 = details: 12-days exposure; MCF-10A; cited from earlier work
# T1 sequence (P08183 whole entry): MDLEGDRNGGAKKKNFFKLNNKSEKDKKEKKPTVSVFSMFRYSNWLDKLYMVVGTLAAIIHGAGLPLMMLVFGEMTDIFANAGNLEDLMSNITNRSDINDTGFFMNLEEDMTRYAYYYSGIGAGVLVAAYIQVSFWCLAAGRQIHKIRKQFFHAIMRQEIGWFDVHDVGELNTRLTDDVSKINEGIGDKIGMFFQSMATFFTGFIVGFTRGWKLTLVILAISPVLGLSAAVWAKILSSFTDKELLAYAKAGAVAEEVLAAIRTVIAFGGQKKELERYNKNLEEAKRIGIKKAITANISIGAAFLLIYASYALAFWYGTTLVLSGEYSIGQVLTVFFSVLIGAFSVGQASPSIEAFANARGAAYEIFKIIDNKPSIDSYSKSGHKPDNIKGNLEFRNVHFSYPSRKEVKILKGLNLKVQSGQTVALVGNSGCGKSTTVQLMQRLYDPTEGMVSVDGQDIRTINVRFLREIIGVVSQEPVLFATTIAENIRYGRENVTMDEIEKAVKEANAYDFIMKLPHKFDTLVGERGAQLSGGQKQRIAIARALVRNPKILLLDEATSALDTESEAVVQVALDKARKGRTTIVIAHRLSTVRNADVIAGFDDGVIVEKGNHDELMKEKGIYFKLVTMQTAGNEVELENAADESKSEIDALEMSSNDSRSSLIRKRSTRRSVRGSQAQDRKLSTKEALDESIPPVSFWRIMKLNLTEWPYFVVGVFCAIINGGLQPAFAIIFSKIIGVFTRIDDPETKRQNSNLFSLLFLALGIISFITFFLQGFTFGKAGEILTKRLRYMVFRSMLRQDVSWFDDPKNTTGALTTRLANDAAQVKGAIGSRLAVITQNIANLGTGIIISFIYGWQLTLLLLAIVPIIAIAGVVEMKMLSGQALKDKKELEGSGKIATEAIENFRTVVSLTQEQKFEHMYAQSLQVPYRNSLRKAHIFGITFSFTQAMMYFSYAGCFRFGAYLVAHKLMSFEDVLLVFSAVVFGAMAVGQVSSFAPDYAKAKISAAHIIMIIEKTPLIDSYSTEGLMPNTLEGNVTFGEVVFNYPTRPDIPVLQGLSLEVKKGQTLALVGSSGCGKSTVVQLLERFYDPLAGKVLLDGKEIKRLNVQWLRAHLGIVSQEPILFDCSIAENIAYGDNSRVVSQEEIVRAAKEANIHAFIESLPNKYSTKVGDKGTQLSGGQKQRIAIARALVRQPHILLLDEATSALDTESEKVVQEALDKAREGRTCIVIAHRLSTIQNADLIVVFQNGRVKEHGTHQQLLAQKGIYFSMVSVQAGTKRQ
smiles,measurement,setting,value
"Cn1ncnc1[C@H]1c2n[nH]c(=O)c3cc(F)cc(c23)N[C@@H]1c1ccc(F)cc1 [talazoparib, Talazoparib]",ABCB1 substrate status,ABCB1 [1],substrate of ABCB1
same,change of ABCB1 mRNA expression vs vehicle control,ABCB1 mRNA,did not trigger the transporters’ expression increase or decrease by more than 100% or 50%
same,change of ABCG2 mRNA expression vs vehicle control,ABCG2 mRNA,did not trigger the transporters’ expression increase or decrease by more than 100% or 50%
same,change of ABCC1 mRNA expression vs vehicle control,ABCC1 mRNA,did not trigger the transporters’ expression increase or decrease by more than 100% or 50%
same,IC50,A431-ABCG2,91.8 µM
same,IC50,A431-ABCC1,91.5 µM
same,IC50,A431-parent,86.8 µM
same,IC50 at 48 h,MTT proliferation assay,67.5 µM
same,IC50,ABCB1 [2],> 50 µM
same,effect on ABCB1 mRNA,ABCB1 [3],upregulate
same,effect on ABCB1 protein level,ABCB1 [3],fluctuating (concentration-dependent induction or downregulation)
same,IC50,MDCKII-ABCC1,66 µM
same,IC50 at 48 h,[4],64.5 µM
same,IC50,MDCKII-parent,69.4 µM
same,effect on ABCG2 mRNA,ABCG2,upregulate
same,effect on ABCG2 protein level,ABCG2,decreased
